target: T1, human leukocyte elastase (Homo sapiens, UniProt P08246); test: in vitro human leukocyte elastase inhibiting activity (fluorogenic substrate, method of JP-A-2-101017 with slight modification); assay type: biochemical; conditions: 50% inhibitory concentration; substrate methoxysuccinyl-Ala-Ala-Pro-Val-7-amido-4-methylcoumarin; 0.2 M Tris-hydrochloride buffer (0.02 M CaCl2, 0.005% Triton X-100), pH 7.2; compound and enzyme incubated at 25°C for 20 minutes; read-out: IC50
T1 sequence (P08246 30-267): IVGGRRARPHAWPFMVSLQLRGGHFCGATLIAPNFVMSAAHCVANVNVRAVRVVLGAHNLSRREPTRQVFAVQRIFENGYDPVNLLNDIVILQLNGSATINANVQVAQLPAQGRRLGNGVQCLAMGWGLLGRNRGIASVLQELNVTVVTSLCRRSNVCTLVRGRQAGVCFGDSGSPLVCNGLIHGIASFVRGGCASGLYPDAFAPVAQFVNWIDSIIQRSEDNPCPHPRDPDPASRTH
Experimental: Thus, methoxysuccinyl-Ala-Ala-Pro-Val-7-amido-4-methylcoumarin was used as a substrate for human leukocyte elastase and the 50% inhibitory concentration (IC₅₀) was measured. The enzymatic reaction was carried out in 0.2 M Tris-hydrochloride buffer (containing 0.02 M CaCl₂ and 0.005% Triton X-100) at pH 7.2. Each mixture of test compound solution and the enzyme solution was incubated at 25°C for 20 minutes.

IC50 [µM]	Compound
0.14	O=C(Oc1cc(Cl)cc(Cl)c1)c1ccc(N2C(=O)CCC2=O)cc1 [Compound 23, 3,5-dichlorophenyl 4-(succinimidyl)benzoate]
0.098	CS(=O)(=O)Nc1ccc(C(=O)Oc2cc(Cl)cc(Cl)c2)cc1 [Compound 24, 3,5-dichlorophenyl 4-(methanesulfonylamino)benzoate]
0.26	O=C(Oc1cc(Cl)cc(Cl)c1)c1ccc(NS(=O)(=O)c2ccccc2)cc1 [Compound 25, 3,5-dichlorophenyl 4-(benzenesulfonylamino)benzoate]
0.047	CNC(=O)Nc1ccc(C(=O)Oc2cc(Cl)cc(Cl)c2)cc1 [Compound 26, 3,5-dichlorophenyl 4-(3-methylureido)benzoate]
0.021	CCNC(=O)Nc1ccc(C(=O)Oc2cc(Cl)cc(Cl)c2)cc1 [Compound 27, 3,5-dichlorophenyl 4-(3-ethylureido)benzoate]
0.016	CCCNC(=O)Nc1ccc(C(=O)Oc2cc(Cl)cc(Cl)c2)cc1 [Compound 28, 3,5-dichlorophenyl 4-(3-propylureido)benzoate]
0.02	CCCCNC(=O)Nc1ccc(C(=O)Oc2cc(Cl)cc(Cl)c2)cc1 [Compound 29, 3,5-dichlorophenyl 4-(3-butylureido)benzoate]
0.19	CCCCCNC(=O)Nc1ccc(C(=O)Oc2cc(Cl)cc(Cl)c2)cc1 [Compound 30, 3,5-dichlorophenyl 4-(3-pentylureido)benzoate]
0.013	CC(C)NC(=O)Nc1ccc(C(=O)Oc2cc(Cl)cc(Cl)c2)cc1 [Compound 31, 3,5-dichlorophenyl 4-(3-isopropylureido)benzoate]
0.026	COC(=O)Nc1ccc(C(=O)Oc2cc(Cl)cc(Cl)c2)cc1 [Compound 33, 3,5-dichlorophenyl 4-(methoxycarbonylamino)benzoate]
0.26	O=C(Nc1ccc(C(=O)Oc2cc(Cl)cc(Cl)c2)cc1)OCc1ccccc1 [Compound 34, 3,5-dichlorophenyl 4-(benzyloxycarbonylamino)benzoate]
0.038	O=C(Nc1ccc(C(=O)Oc2cc(Cl)cc(Cl)c2)cc1)OCCO [Compound 35, 3,5-dichlorophenyl 4-(2-hydroxyethoxycarbonylamino)benzoate]
0.079	O=C(Cc1cccs1)Nc1ccc(C(=O)Oc2cc(Cl)cc(Cl)c2)cc1 [Compound 37, 3,5-dichlorophenyl 4-(2-thienylacetylamino)benzoate]
0.096	CC(S)C(=O)Nc1ccc(C(=O)Oc2cc(Cl)cc(Cl)c2)cc1 (stereo not drawn) [Compound 39, 3,5-dichlorophenyl 4-(2-mercaptopropanoylamino)benzoate]
0.0034	CC(C)(C(=O)O)C(=O)Nc1ccc(C(=O)Oc2cc(Cl)cc(Cl)c2)cc1 [Compound 40, 3,5-dichlorophenyl 4-(2,2-dimethylmalonylamino)benzoate]
0.047	CC(C)(CC(=O)Nc1ccc(C(=O)Oc2cc(Cl)cc(Cl)c2)cc1)C(=O)O [Compound 41, 3,5-dichlorophenyl 4-(3,3-dimethylsuccinylamino)benzoate]
0.0021	CC(C(=O)O)C(C)C(=O)Nc1ccc(C(=O)Oc2cc(Cl)cc(Cl)c2)cc1 (stereo not drawn) [Compound 42, 3,5-dichlorophenyl 4-(meso-2,3-dimethylsuccinylamino)benzoate]
0.0076	O=C(O)CCCC(=O)Nc1ccc(C(=O)Oc2cc(Cl)cc(Cl)c2)cc1 [Compound 43, 3,5-dichlorophenyl 4-(glutarylamino)benzoate]

Compound	IC50 [µM]
CN(C)C(=O)Nc1ccc(C(=O)Oc2cc(Cl)cc(Cl)c2)cc1 [Compound 32, 3,5-dichlorophenyl 4-(3,3-dimethylureido)benzoate]	0.0059
CC(=O)OC(=O)Nc1ccc(C(=O)Oc2cc(Cl)cc(Cl)c2)cc1 [Compound 36, 3,5-dichlorophenyl 4-(acetoxycarbonylamino)benzoate]	0.031
CSC(C)C(=O)Nc1ccc(C(=O)Oc2cc(Cl)cc(Cl)c2)cc1 (stereo not drawn) [Compound 38, 3,5-dichlorophenyl 4-(2-methylthiopropanoylamino)benzoate]	0.018
